Results from ChEMBL document CHEMBL4396901, “Discovery of Potent and Noncovalent Reversible EGFR Kinase Inhibitors of EGFRL858R/T790M/C797S” (ACS Med Chem Lett, 2019).
Active and inactive are the calls of the source. The calls are words filed in the database; no cut-off is given here.

How the values were obtained:
[1] = biological target: Focal adhesion kinase 1 (Homo sapiens) (UniProt Q05397); assay: Inhibition of FAK (unknown origin) at 100 nM relative to control
[2] = biological target: Receptor-type tyrosine-protein kinase FLT3 (Homo sapiens) (UniProt P36888); assay: Inhibition of FLT3 (unknown origin) at 100 nM relative to control
[3] = biological target: High affinity nerve growth factor receptor (Homo sapiens) (UniProt P04629); assay: Inhibition of TrkA (unknown origin) at 100 nM relative to control
[4] = biological target: Tyrosine-protein kinase Yes (Homo sapiens) (UniProt P07947); assay: Inhibition of YES (unknown origin) at 100 nM relative to control
Sequence of Tyrosine-protein kinase Yes (Homo sapiens) (P07947 2-543 limits assumed): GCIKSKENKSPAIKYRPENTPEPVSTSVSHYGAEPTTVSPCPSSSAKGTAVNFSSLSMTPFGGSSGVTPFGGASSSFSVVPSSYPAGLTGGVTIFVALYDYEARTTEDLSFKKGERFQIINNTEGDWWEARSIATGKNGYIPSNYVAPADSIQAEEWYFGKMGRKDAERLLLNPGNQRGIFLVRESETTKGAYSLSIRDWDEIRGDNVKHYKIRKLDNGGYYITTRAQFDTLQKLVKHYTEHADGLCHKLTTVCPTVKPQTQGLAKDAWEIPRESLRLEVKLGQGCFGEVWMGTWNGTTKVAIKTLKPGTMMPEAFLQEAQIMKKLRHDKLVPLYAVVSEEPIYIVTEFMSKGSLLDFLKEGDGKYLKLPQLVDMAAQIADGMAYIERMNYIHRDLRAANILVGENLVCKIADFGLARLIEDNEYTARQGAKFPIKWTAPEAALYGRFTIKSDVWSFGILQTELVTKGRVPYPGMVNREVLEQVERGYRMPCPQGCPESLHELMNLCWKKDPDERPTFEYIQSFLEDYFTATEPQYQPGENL

[5] = biological target: NT-3 growth factor receptor (Homo sapiens) (UniProt Q16288); assay: Inhibition of TrkC (unknown origin) at 100 nM relative to control
[6] = biological target: Platelet-derived growth factor receptor beta (Homo sapiens) (UniProt P09619); assay: Inhibition of PDGFRbeta (unknown origin) at 100 nM relative to control
[7] = biological target: Mast/stem cell growth factor receptor Kit (Homo sapiens) (UniProt P10721); assay: Inhibition of cKIT (unknown origin) at 100 nM relative to control
[8] = biological target: Vascular endothelial growth factor receptor 1 (Homo sapiens) (UniProt P17948); assay: Inhibition of VEGFR1 (unknown origin) at 100 nM relative to control
[9] = biological target: Cytoplasmic tyrosine-protein kinase BMX (Homo sapiens) (UniProt P51813); assay: Inhibition of BMX (unknown origin) at 100 nM relative to control
Sequence of Cytoplasmic tyrosine-protein kinase BMX (Homo sapiens) (P51813 whole entry): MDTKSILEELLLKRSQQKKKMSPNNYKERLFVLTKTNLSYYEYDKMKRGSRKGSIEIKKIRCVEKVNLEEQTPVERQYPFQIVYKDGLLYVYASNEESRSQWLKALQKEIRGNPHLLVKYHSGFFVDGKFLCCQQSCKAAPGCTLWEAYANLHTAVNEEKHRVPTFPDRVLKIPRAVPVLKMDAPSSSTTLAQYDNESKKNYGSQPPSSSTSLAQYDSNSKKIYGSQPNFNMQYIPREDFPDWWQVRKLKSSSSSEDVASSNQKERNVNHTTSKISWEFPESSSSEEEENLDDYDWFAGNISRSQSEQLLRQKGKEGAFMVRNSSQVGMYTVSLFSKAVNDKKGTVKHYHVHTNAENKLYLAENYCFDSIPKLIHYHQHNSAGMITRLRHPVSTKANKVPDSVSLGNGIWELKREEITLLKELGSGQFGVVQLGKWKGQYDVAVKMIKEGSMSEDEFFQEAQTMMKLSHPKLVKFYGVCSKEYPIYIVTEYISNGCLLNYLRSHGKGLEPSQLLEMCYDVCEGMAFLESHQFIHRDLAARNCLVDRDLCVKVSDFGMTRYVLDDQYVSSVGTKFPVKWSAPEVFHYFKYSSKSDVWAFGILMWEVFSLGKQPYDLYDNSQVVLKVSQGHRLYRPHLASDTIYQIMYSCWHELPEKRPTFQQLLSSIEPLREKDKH

[10] = biological target: Ephrin type-A receptor 2 (Homo sapiens) (UniProt P29317); assay: Inhibition of EPHA2 (unknown origin) at 100 nM relative to control
Sequence of Ephrin type-A receptor 2 (Homo sapiens) (P29317 whole entry): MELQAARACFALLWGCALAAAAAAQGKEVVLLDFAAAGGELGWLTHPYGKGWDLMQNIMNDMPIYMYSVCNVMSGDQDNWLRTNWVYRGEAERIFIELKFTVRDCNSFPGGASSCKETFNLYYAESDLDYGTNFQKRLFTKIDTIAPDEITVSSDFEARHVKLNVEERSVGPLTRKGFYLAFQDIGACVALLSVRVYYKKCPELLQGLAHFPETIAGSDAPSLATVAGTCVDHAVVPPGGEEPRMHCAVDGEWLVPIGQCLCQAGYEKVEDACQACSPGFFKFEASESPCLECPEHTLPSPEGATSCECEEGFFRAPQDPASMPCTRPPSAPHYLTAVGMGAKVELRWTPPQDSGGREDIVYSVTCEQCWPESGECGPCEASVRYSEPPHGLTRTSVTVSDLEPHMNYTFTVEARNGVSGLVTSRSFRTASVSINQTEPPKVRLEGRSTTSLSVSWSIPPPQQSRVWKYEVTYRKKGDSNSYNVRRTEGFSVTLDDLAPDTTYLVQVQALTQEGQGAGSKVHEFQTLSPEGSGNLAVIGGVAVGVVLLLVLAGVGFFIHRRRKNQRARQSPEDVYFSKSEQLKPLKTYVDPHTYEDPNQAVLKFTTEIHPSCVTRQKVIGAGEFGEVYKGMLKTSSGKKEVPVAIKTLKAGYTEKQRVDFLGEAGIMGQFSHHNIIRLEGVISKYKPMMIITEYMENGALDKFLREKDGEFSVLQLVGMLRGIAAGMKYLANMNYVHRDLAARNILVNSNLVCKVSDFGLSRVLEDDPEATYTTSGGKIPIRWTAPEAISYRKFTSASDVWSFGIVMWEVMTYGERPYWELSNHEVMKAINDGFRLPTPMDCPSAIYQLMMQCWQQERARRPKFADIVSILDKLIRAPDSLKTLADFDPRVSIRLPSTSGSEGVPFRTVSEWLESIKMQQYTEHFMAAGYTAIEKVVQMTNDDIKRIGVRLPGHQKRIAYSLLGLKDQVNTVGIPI

[11] = biological target: Fibroblast growth factor receptor 2 (Homo sapiens) (UniProt P21802); assay: Inhibition of FGFR2 (unknown origin) at 100 nM relative to control
[12] = tested on: Epidermal growth factor receptor (Homo sapiens), P00533 [L858R,T790M,C797S]; assay: Inhibition of recombinant human C-terminal His-tagged/N-terminal GST-tagged EGFR (668 to 1210 residues) T790M/L858R/C797S mutant expressed in baculovirus expression system at 100 nM using poly (Glu,Tyr) 4:1 as substrate incubated for 1 hr in presence of ATP by ELISA relative to control
Sequence of Epidermal growth factor receptor (Homo sapiens), P00533 [L858R,T790M,C797S] (P00533 whole entry T790M/C797S/L858R, the tested form may be a part): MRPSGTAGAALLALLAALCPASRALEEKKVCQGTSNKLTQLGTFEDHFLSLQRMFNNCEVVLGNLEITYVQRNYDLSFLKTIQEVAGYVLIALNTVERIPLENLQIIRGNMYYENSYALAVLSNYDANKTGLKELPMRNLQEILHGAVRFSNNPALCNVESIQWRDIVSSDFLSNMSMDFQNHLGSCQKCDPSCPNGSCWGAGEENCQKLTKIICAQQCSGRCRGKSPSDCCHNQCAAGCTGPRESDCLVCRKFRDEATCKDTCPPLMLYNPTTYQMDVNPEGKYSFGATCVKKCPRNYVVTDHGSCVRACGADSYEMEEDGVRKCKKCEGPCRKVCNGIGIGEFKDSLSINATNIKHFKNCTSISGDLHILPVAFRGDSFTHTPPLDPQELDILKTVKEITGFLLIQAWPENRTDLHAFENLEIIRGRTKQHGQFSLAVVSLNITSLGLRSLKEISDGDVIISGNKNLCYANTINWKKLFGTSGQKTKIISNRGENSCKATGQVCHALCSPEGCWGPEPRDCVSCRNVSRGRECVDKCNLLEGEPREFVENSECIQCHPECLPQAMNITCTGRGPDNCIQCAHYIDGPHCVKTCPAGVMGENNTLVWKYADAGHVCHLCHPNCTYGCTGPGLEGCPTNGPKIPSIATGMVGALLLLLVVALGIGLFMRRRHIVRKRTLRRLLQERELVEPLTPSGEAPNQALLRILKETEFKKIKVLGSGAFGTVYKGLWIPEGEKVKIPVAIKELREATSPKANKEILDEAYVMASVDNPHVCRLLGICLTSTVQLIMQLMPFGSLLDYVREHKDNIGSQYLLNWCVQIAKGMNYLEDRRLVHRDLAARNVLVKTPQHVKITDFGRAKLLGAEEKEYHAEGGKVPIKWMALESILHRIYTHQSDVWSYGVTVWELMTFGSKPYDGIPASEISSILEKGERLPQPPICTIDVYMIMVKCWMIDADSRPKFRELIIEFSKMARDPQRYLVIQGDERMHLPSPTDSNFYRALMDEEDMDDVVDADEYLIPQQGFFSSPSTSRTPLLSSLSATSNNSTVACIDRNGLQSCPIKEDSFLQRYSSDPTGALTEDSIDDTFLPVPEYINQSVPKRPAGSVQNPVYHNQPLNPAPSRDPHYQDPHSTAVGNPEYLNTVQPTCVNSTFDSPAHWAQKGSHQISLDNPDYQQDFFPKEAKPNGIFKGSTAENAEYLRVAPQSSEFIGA

[13] = biological target: Proto-oncogene tyrosine-protein kinase Src (Homo sapiens) (UniProt P12931); assay: Inhibition of Src (unknown origin) at 100 nM relative to control
BaF3 [14] = assay: Antiproliferative activity against mouse BAF3 cells transfected with EGFR 19D/T790M/C797S mutant (unknown origin) incubated for 72 hrs by resazurin dye based assay; type: functional, cell-based; settings: BaF3, 72 h
[15] = biological target: Fibroblast growth factor receptor 3 (Homo sapiens) (UniProt P22607); assay: Inhibition of FGFR3 (unknown origin) at 100 nM relative to control
[16] = biological target: Vascular endothelial growth factor receptor 2 (Homo sapiens) (UniProt P35968); assay: Inhibition of VEGFR2 (unknown origin) at 100 nM relative to control
[17] = biological target: Tyrosine-protein kinase JAK1 (Homo sapiens) (UniProt P23458); assay: Inhibition of JAK1 (unknown origin) at 100 nM relative to control
[18] = Clearance in rat at 1 mg/kg, iv measured for 0.083 to 24 hrs by LC-MS/MS analysis; type: ADME, organism-based; settings: in vivo
[19] = biological target: Fibroblast growth factor receptor 4 (Homo sapiens) (UniProt P22455); assay: Inhibition of FGFR4 (unknown origin) at 100 nM relative to control
Sequence of Fibroblast growth factor receptor 4 (Homo sapiens) (P22455 22-802 limits assumed): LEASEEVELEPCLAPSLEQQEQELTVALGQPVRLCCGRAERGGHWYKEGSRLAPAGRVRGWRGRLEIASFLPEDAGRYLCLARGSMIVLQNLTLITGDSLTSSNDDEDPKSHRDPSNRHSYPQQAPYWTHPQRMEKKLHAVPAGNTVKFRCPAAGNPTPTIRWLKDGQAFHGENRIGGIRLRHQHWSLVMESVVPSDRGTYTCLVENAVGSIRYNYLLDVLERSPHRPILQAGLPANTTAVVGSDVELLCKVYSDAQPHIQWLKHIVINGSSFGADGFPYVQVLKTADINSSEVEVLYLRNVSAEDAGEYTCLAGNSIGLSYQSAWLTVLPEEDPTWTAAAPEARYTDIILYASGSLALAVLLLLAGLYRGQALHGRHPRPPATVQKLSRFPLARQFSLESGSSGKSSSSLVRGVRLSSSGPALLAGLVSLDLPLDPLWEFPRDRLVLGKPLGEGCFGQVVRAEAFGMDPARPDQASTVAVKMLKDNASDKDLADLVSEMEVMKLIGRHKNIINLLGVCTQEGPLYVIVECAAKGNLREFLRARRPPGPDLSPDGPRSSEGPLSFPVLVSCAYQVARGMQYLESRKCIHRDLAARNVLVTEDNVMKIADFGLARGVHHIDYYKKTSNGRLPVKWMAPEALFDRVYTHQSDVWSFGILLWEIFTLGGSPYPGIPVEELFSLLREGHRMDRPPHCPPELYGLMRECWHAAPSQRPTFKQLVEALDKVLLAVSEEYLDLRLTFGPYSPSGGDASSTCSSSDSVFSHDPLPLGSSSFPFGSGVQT

[20] = biological target: Hepatocyte growth factor receptor (Homo sapiens) (UniProt P08581); assay: Inhibition of MET (unknown origin) at 100 nM relative to control
[21] = Aqueous solubility of the compound in PBS buffer at pH 6.8 by UV-Vis spectrophotometric method; type: physicochemical
BaF3 [22] = assay: Cytotoxicity against mouse BAF3 cells incubated for 72 hrs by resazurin dye based assay; type: cell-based; settings: BaF3, 72 h
[23] = biological target: Tyrosine-protein kinase BTK (Homo sapiens) (UniProt Q06187); assay: Inhibition of BTK (unknown origin) at 100 nM relative to control
Sequence of Tyrosine-protein kinase BTK (Homo sapiens) (Q06187 whole entry): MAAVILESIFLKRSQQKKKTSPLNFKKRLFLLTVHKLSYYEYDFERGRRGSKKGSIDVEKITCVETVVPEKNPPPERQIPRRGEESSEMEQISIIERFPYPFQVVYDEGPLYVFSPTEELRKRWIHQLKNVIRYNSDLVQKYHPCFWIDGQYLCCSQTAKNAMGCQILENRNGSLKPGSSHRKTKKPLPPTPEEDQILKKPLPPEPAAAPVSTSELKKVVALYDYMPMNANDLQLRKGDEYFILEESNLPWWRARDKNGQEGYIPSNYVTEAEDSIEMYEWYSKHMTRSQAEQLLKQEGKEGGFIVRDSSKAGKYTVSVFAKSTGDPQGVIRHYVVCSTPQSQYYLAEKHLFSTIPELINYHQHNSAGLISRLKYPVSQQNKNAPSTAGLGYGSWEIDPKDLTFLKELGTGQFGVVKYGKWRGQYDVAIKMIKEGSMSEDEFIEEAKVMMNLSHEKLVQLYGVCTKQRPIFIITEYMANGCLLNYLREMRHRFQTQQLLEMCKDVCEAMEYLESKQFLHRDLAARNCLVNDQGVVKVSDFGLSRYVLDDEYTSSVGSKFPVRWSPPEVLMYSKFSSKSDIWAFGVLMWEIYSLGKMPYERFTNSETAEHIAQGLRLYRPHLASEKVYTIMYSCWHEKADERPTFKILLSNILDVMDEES

[24] = biological target: Proto-oncogene tyrosine-protein kinase receptor Ret (Homo sapiens) (UniProt P07949); assay: Inhibition of RET (unknown origin) at 100 nM relative to control
[25] = biological target: Inhibitor of NF-kappa-B kinase (IKK) (Homo sapiens) (UniProt O14920+O15111+Q9Y6K9); assay: Inhibition of IKK (unknown origin) at 100 nM relative to control; type: protein-complex assay
[26] = biological target: Receptor tyrosine-protein kinase erbB-2 (Homo sapiens) (UniProt P04626); assay: Inhibition of ErbB2 (unknown origin) at 100 nM relative to control
A-431 = assay: Antiproliferative activity human A431 cells incubated for 72 hrs by SRB assay; type: functional, cell-based; settings: A-431, 72 h
[27] = biological target: ALK tyrosine kinase receptor (Homo sapiens) (UniProt Q9UM73); assay: Inhibition of ALK (unknown origin) at 100 nM relative to control
[28] = biological target: Insulin-like growth factor 1 receptor (Homo sapiens) (UniProt P08069); assay: Inhibition of IGF1R (unknown origin) at 100 nM relative to control
[29] = biological target: Vascular endothelial growth factor receptor 3 (Homo sapiens) (UniProt P35916); assay: Inhibition of VEGFR3 (unknown origin) at 100 nM relative to control
[30] = biological target: Ephrin type-B receptor 2 (Homo sapiens) (UniProt P29323); assay: Inhibition of EPHB2 (unknown origin) at 100 nM relative to control
[31] = biological target: Tyrosine-protein kinase TXK (Homo sapiens) (UniProt P42681); assay: Inhibition of Txk (unknown origin) at 100 nM relative to control
[32] = biological target: Tyrosine-protein kinase Blk (Homo sapiens) (UniProt P51451); assay: Inhibition of BLK (unknown origin) at 100 nM relative to control
[33] = tested on: Epidermal growth factor receptor (Homo sapiens), P00533 [L858R,T790M,C797S]; assay: Inhibition of EGFR L858R/T790M/C797S mutant (unknown origin) transfected in mouse BAF3 cells assessed as inhibition of EGF-induced EGFR phosphorylation at 0.1 uM by Western blot analysis; type: cell-based
[34] = tested on: Epidermal growth factor receptor (Homo sapiens), P00533 [L858R,T790M,C797S]; assay: Inhibition of EGFR L858R/T790M/C797S mutant (unknown origin) transfected in mouse BAF3 cells assessed as inhibition of EGF-induced EGFR phosphorylation by Western blot analysis; type: cell-based
[35] = Oral bioavailability in rat at 10 mg/kg measured for 0.083 to 24 hrs by LC-MS/MS analysis; type: ADME, organism-based; settings: in vivo
BaF3 [36] = assay: Antiproliferative activity against mouse BAF3 cells transfected with EGFR L858R/T790M/C797S mutant (unknown origin) incubated for 72 hrs by resazurin dye based assay; type: functional, cell-based; settings: BaF3, 72 h
[37] = biological target: Tyrosine-protein kinase ABL1 (Homo sapiens) (UniProt P00519); assay: Inhibition of Abl (unknown origin) at 100 nM relative to control

Molecule `COc1cc2c(Nc3ccc(NC(=O)C(c4cc(F)ccc4F)N4Cc5ccccc5C4=O)cc3F)ncnc2cc1OCC1CCN(C)CC1` (stereo not drawn) has an inhibition [1] of less than 25%, an inhibition [2] of less than 25% and an inhibition [3] of less than 25%. It also gave an inhibition [4] of less than 25%, an inhibition [5] of less than 25% and an inhibition [6] of 50 to 75%. The inhibition [7] was less than 25%, the inhibition [8] was less than 25% and the inhibition [9] was less than 25%. For the same molecule, the inhibition [10] was less than 25%, the inhibition [11] was less than 25% and the inhibition [12] was greater than 90%. The inhibition [13] was 50 to 75%, the IC50 (BaF3 [14]) was 3.54 µM and the inhibition [15] was less than 25%. The inhibition [16] was 50 to 75%, the inhibition [17] was less than 25% and the clearance [18] was 16 mL/min/kg. The inhibition [19] was less than 25%, the inhibition [20] was less than 25% and the solubility [21] was “Insoluble”. It also gave an IC50 (BaF3 [22]) of 7.68 µM, an inhibition [23] of 50 to 75% and an inhibition [24] of less than 25%. For the same molecule, the inhibition [25] was less than 25%, the inhibition [26] was greater than 90% and the IC50 (A-431) was 1.24 µM. For the same molecule, the inhibition [27] was less than 25%, the inhibition [28] was less than 25% and the inhibition [29] was less than 25%. It also gave an inhibition [30] of less than 25%, an inhibition [31] of 50 to 75% and an inhibition [32] greater than 90%. For the same molecule, the inhibition [33] was “Active”, the inhibition [34] was “Dose-dependent effect” and the bioavailability [35] was 0.55%. For the same molecule, the IC50 (BaF3 [36]) was 0.64 µM and the inhibition [37] was 50 to 75%.
